# Entries after “also recorded” stand apart in the source; their conditions may differ.
# Key:
# VEGFR2 (KDR/Fc) = assay: Co-precipitation assay, VEGF with VEGFR2/Fc in solution; format: binding; settings: F(ab′)2
# Procedure: 200 ng of soluble forms of VEGFR1 (Flt-1/Fc) or VEGFR2 (KDR/Fc, R&D Systems, Minneapolis, Minn.) were added for a total volume of 50 μl and incubated for 2 hrs. The receptor/Fc constructs were precipitated using Protein A-sepbarose beads and the resulting precipitate was washed 4 times with binding buffer.
# Reducing sample buffer was added to the pellet and supernatant of each reaction and both were analyzed by 12% SDS-PAGE and transferred to PVDF membranes. […] The soluble receptor/Fc constructs were also detected by using peroxidase-conjugated goat anti-human Fc (Kirkegaard & Perry Laboratories, Inc.)
# The receptor/Fc constructs were precipitated by incubation with Protein A sepharose beads. The precipitate was washed and resuspended in reducing sample buffer and separated by 12% SDS-PAGE and transferred to PVDF.
# [1] = tested on: progressive disease in cancer patients; settings: clinical trials; cited from earlier work
# [2] = Blood clearance of radioiodinated 2C3-GUS after intravenous injection; format: in vivo, mice; settings: 125I-labelled
# Excerpt: 2C3-GUS was radioiodinated with ^125I to a specific activity of 5×10^6 cpm/μg.
# [3] = tested on: human NCI-H358 NSCLC tumors; assay: Localization of 2C3-GUS after i.v. injection into tumor-bearing SCID mice; format: in vivo
# [4] = dose-related; cited from earlier work
# A673 rhabdomyosarcoma = assay: In vivo tumor growth inhibition, newly-implanted A673 rhabdomyosarcoma; design: species or system nu/nu mice
# Procedure: (§1) FIG. 3A and FIG. 3B. […] FIG. 3A: 1×10^7 NCI-H358 NSCLC cells were injected subcutaneously into nu/nu mice on day 0. FIG. 3B: 5×10^6 A673 rhabdomyosarcoma cells were injected subcutaneously into nu/nu mice on day 0. Mice were injected i.p. with the indicated IgG on day 1 and 2 times/week thereafter. […] Tumors were measured 2-3 times per week. Mean and standard error is shown for the duration of the study in FIG. 3A, while data for the last day of the study (day 26) is shown in FIG. 3B.
# (§2) Nu/nu mice were injected subcutaneously with either 1×10^7 NCI-H358 NSCLC cells or 5×10^6 A673 rhabdomyosarcoma cells on day 0. […] The tumors were then measured twice per wk for a period of approximately six wk for the NCI-H358 bearing mice and four wk for the A673 bearing mice. Tumor volume was calculated according to the formula: volume=L×W×H, where L=length, W=width, H=height.
# [5] = tested on: VEGFR2 (KDR/Flk-1), sFlk-1-biotin; assay: ELISA: VEGF binding to VEGFR2-coated wells in presence of antibody; design: species or system mouse
# Procedure: (§3) FIG. 2. […] The plate was then incubated with rabbit anti-VEGF (A-20, Santa Cruz Biotechnology, Inc.) at 1 μg/ml and developed using a peroxidase conjugated goat anti-rabbit antibody. Assays were performed in triplicate. Mean percent binding in the absence of antibody is shown, together with the standard deviation.
# (§4) The assay was also performed by coating wells of a microtiter plate with either control or test IgG.
# [6] = target: T1, denatured VEGF121 and VEGF165 (Homo sapiens, UniProt P15692); assay: Western blot analysis of anti-VEGF antibodies; format: binding; settings: reducing and non-reducing conditions
# T1 sequence (P15692 27-191 isoform P15692-4): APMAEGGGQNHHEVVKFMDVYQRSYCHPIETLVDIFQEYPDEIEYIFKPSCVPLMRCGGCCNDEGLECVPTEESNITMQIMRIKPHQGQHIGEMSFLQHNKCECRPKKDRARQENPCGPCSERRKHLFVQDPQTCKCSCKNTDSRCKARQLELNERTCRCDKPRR
# Procedure: The nitrocellulose membrane was blocked using Sea-Block PP82-41 (East Coast Biologics, Berwick, Me.), and probed with primary antibodies using a mini-blotter apparatus (Immunetics, Cambridge, Mass.). The membranes were developed after incubation with the appropriate peroxidase-conjugated secondary antibody by ECL enhanced chemiluminescence.
# Western blot analyses of anti-VEGF antibodies were conducted by separating VEGF165 in the presence of 5% FCS using SDS-PAGE on a 12% gel and analyzing by a standard western blotting protocol using ECL detection. The primary antibodies were incubated with the nitrocellulose membrane using a multi-lane mini-blotter apparatus.
# [7] = tested on: VEGF-mediated growth of ABAE cells; assay: Endothelial cell growth assay (MTS), VEGF-mediated growth of ABAE cells; format: cell-based, bovine; settings: summary table
# Procedure: ABAE cells were grown in the presence of the various indicated antibodies and 0.5 nM VEGF. Growth after 4 days was determined colorimetrically by the enzymatic conversion of MTS (Owen's reagent) to a yellow formazan. […] Background was determined by growing cells without VEGF or antibody and was subtracted from the control and sample wells.
# Adult bovine aortic endothelial (ABAE) cells were plated into 96-well tissue culture plates at 1500 cells/well and grown in the presence of 0.5 nM human VEGF with the addition of the various sample and control antibodies. Control wells received media with or without VEGF.
# After 4 days of incubation, the cells were quantified by an MTS (3-(4,5-dimethylthiazol-2-yl)-5-(3-carboxylmethoxyphenyl)-2-(4-sulfophenyl)-2H-tetrazolium, inner salt) conversion assay, where MTS conversion to a formazan is proportional to cell number and can be followed by absorbance at 490 nm (Cell Titer 96 AQueous One Solution Cell Proliferation Assay, Promega, Madison, Wis.). The assay was performed according to the manufacturer's instructions.
# Cell growth was estimated by subtracting the MTS conversion in cultures to which VEGF was not added. Results were expressed as a percentage of the MTS conversion in control cultures to which only VEGF was added (Buttke et al., 1993).
# [8] = tested on: NCI-H358 NSCLC and HT29 colon adenocarcinoma xenografts and normal organs; assay: In vivo localization in mice bearing human tumor xenografts (immunohistochemistry 24 h after i.v. injection); design: species or system mouse
# Procedure: Tumors were grown subcutaneously in immunocompromised mice (NCI-H358 NSCLC in nu/nu mice and HT29 colon adenocarcinoma in SCID mice) until the tumor volume was approximately 1 cm^3. 100 μg of unlabeled antibody for studies using SCID mice, or 100 μg of biotinylated antibody for studies using nude mice, was injected intravenously via a tail vein. Twenty four hours later, the mice were anesthetized, perfused with PBS, and tumor and organs including heart, lungs, liver, kidneys, intestines and spleen were collected and snap frozen in liquid nitrogen.
# The tumor and organs from each mouse were sectioned on a cryostat and stained for antibody immunohistochemically as above, with the exception that sections from the nude mice were developed using peroxidase labeled streptavidin-biotin complex (Dako, Carpinteria, Calif.) and the sections from the SCID mice were developed using two peroxidase-conjugated secondary antibodies, a goat anti-mouse IgG+IgM followed by a rabbit anti-goat IgG.
# 100 μg of GV39M and 3E7 or isotype-matched control IgG were injected into SCID mice bearing HT29 human colonic adenocarcinomas. Twenty-four hours later, the mice were sacrificed, exsanguinated and the tumors and tissues were removed.
# HT1080 fibrosarcoma = assay: Treatment of established HT1080 fibrosarcoma xenografts; format: in vivo, nu/nu mice; settings: 100 μg every two days
# Procedure: (§5) FIG. 5A and FIG. 5B. […] Treatments (T) were 100 μg of the IgG given i.p., except for the initial treatment that consisted of 500 μg of the IgG given i.v. Mean tumor volume along with the SEM is shown. At the end of the study (day 116), the mice were sacrificed and the tumors dissected out and weighed. […] The mice were treated every other day as indicated (T). […] Mean tumor volume along with the SE is shown.
# (§6) Male nu/nu mice bearing subcutaneous NCI-H358 tumors or HT1080 fibrosarcoma 200-400 mm^3 in size were injected i.p. with test or control antibodies. The NCI-H358 bearing mice were treated with 100 μg of antibodies per injection three times a week during the first week and twice a week during the second and third week. The mice were then switched to 50 μg per injection every five days. The HT1080 bearing mice were treated with 100 μg of the indicated antibody or saline every other day throughout the duration of the study. In both studies, mice were sacrificed when their tumors reached 2500 mm^3 in size or earlier if tumors began to ulcerate.
# VEGFR1 (FLT-1), Flt-1/Fc = assay: ELISA: VEGF binding to VEGFR1-coated wells in presence of antibody; settings: summary table
# Procedure: as §3, §4
# NCI-H358 NSCLC tumors = assay: Treatment of established NCI-H358 NSCLC tumor xenografts; format: in vivo, nu/nu mice
# Procedure: FIG. 4. […] Mean tumor volume along with the SEM over 116 days is shown.
# as §5, §6
# Doses were 50-100 μg every 3-5 days. […] In addition to measuring mean tumor volume (FIG. 4), photographs of the mice from each treatment group were also taken to show the differences in tumor size and appearance at the end of the study.
# KDR = assay: 125I-VEGF binding studies on KDR expressing endothelial cells (ABAE cells); design: species or system bovine
# VEGFR2 = assay: VEGF-induced phosphorylation of VEGFR2 in PAE/KDR cells (immunoprecipitation, western blot); format: cell-based, porcine aortic endothelial cells transfected with VEGFR2; settings: antibody 100 nM
# Procedure: PAE/KDR, PAE/FLT, and bEND.3 cells were grown to 80-90% confluency in 100 mm tissue dishes in media containing 5% serum. The cells were then serum starved for 24 hours in media containing 0.1% serum. After pretreatment with 100 […] in PBS for 30 min, the cells were incubated with 5 nM (200 ng/ml) VEGF165, 5 nM (100 ng/ml) bFGF (R&D Systems, Minneapolis, Minn.), or A673 tumor conditioned media in the presence or absence of control or test antibodies for additional 15 min.
# The cells were then washed with ice-cold PBS containing 10 mM EDTA, 2 mM sodium fluoride, and 2 mM sodium orthovanadate and lysed in lysis buffer (50 mM Tris, 150 mM NaCl, 1% Nonidet P40, 0.25% sodium deoxycholate, 0.1% CHAPS, 5 mM EDTA, 1.5 mM MgCl2, 2 mM sodium fluoride, 2 mM sodium orthovanadate, 10% glycerol and protease inhibitors (Complete Protease Inhibitor Cocktail tablets, Boehringer Mannheim)). The lysates were clarified by centrifugation and resulting supematant used for immunoprecipitation.
# The reactions using the chicken anti-FLT-1 antibody were subsequently incubated with a bridging goat anti-chicken antibody (Kirkegaard and Perry Laboratories, Inc.) for 1 h at 4° C. […]
# NCI-H358 NSCLC = assay: In vivo tumor growth inhibition, newly-implanted NCI-H358 NSCLC; design: species or system nu/nu mice
# Procedure: as §1, §2
# mouse VEGF = target: T2, mouse VEGF (Mus musculus, UniProt Q00731); assay: Indirect ELISA with mouse VEGF; format: binding
# T2 sequence (Q00731 27-190 isoform Q00731-2): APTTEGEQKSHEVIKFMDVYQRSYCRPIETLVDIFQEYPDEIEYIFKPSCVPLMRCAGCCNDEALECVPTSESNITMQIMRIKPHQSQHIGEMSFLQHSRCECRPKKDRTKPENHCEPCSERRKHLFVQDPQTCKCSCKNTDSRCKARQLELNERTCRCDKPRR
# [9] = target: T3, VEGF alone or VEGF associated with sFlk-1 (VEGF:Flk-1) (Homo sapiens, UniProt P15692); assay: Indirect and capture ELISA for reactivity with VEGF alone or VEGF associated with sFlk-1; format: binding; settings: VEGF alone or VEGF:Flk-1
# T3 sequence (P15692 27-191 isoform P15692-4): T1 sequence (P15692 27-191 isoform P15692-4)
# Procedure: The Flk-1/SEAP protein was produced and purified as described by Tessler etal. (1994). Basically, the extracellular domain of Flk-1 (sFlk-1) was produced in Spodoptera frugiperda (Sf9) cells and purified by immunoaffinity techniques utilizing a monoclonal anti-Flk-1 antibody (1A8). sFlk-1 was then biotinylated and bound on avidin-coated plates.
# The reactivity was determined as described above for the initial screening.
# A capture ELISA was also developed. In the capture ELISA, microtiter plates were coated overnight at 4° C. with 100 ng of the indicated antibody. […] Streptavidin conjugated to peroxidase (Kirkegaard & Perry Laboratories, Inc.), diluted 1:2000, was used as a second layer and developed.
# [10] = 100 μg i.p. 2 times per wk from day 1, controls approximately 1000 mm^3
compound,measurement,setting,value
2C3 F(ab′)2: F(ab′)2 fragment of 2C3,Blocking of VEGF binding to VEGFR2/Fc in solution,VEGFR2 (KDR/Fc),blocked the binding of VEGF to VEGFR2/Fc
"NC(=O)c1nnn(Cc2cc(Cl)c(C(=O)c3ccc(Cl)cc3)c(Cl)c2)c1N [CAI, carboxyamidotriazole]","Disease stabilization, share of cancer patients having progressive disease before treatment",[1],49%
2C3-GUS,t½ α,[2],about 6 hours
same,t½ β,[2],about 25 hours
same,Localization after i.v. injection,[3]; immunohistochemistry on frozen tumor sections,specifically localized to tumor vasculature and surrounding tumor stroma
same,Staining of normal tissues,"[3]; mouse, in vivo",Normal tissues were unstained
"recombinant, humanized form of Genentech's anti-VEGF antibody: recombinant, humanized form of Genentech's anti-VEGF antibody evaluated in monkeys (Ryan et al., 1999)",Preclinical safety finding in monkeys,[4],physeal dysplasia
"2C3: anti-VEGF monoclonal IgG2a,k from hybridoma ATCC PTA 1595; blocks VEGF binding to VEGFR2 but not VEGFR1",Final tumor volume,A673 rhabdomyosarcoma; [10],approximately 150 mm^3
same,"Effect on growth of A673 tumors, lower doses",A673 rhabdomyosarcoma; 10 or 1 μg twice per wk,did slow the growth of A673 tumors
same,Reduction in VEGF binding to VEGFR2,[5]; 100 fold molar excess over VEGF,about 74%
same,"VEGF bound to VEGFR2-coated wells, % of amount bound in absence of antibody",[5]; 1000-fold molar excess over VEGF,~19%
same,Reduction in VEGF binding to VEGFR2,[5]; 1000 fold molar excess over VEGF,about 81%
same,Blocks VEGF from binding to VEGFR2,[5]; summary table,Yes
same,Reactivity with VEGF on western blot,[6],react with denatured VEGF121 and VEGF165 under reducing and non-reducing conditions
same,Blocks VEGF-induced proliferation,[7],Yes
same,"Immunohistochemical Reactivity, Tumor","[8]; 24 hours after i.v. antibody, 3E7 and GV39M bound tumor vascular endothelium, 2C3 tumor stroma",3+
same,In vivo localization in H358 human NSCLC tumor,"[8]; biotinylated antibody, i.v., nu/nu mice",intense staining of connective tissue surrounding the vasculature
same,In vivo localization in HT29 human tumor model,"[8]; mouse, in vivo",localized strongly to the connective tissue
same,In vivo normal mouse tissue localization,"[8]; mouse, in vivo",None
same,Effect on growth of established HT1080 tumors,HT1080 fibrosarcoma,arrested the growth of the tumors
same,Blocks VEGF from binding to VEGFR1,"VEGFR1 (FLT-1), Flt-1/Fc",No
same,Mean tumor weight at end of study (day 116),"NCI-H358 NSCLC tumors; 100 μg i.p., initial treatment 500 μg i.v.",0.054 g
same,Mean tumor volume after approximately 14 wk of treatment,"NCI-H358 NSCLC tumors; 100 μg, start 480 mm^3 (2C3), 428 mm^3 (3E7)",84 mm^3
same,Mean tumor volume at the end of the study as % of initial mean tumor volume,"NCI-H358 NSCLC tumors; 50-100 μg i.p. every 3-5 days, approximately 10 weeks",30%
same,Decrease in mean tumor volume,"NCI-H358 NSCLC tumors; approximately 14 wk of treatment, 100 μg",approximately 80%
same,Regression of established NCI-H358 tumors,"NCI-H358 NSCLC tumors; mouse, in vivo",caused significant tumor regressions; also recorded: slow regression of the tumors
same,Blocking of 125I-VEGF binding to KDR,KDR,blocks VEGF from binding to KDR in a concentration dependent manner
same,Blocking of VEGF-induced phosphorylation of VEGFR2,VEGFR2,block VEGF-induced phosphorylation of VEGFR2 in PAE/KDR cells
same,"Tumor growth retardation in NCI-H358 tumor model, lower dose",NCI-H358 NSCLC; 10 μg twice per wk,less marked
same,Final tumor volume,NCI-H358 NSCLC; [10],approximately 150 mm^3
same,Reactivity with mouse VEGF,mouse VEGF,all the antibodies except 2C3 react with mouse VEGF
same,Predominant Reactivity,[9],VEGF

# From patent US6887468B1 (Board of Regents, The University of Texas System, priority 1999, dated 2005)
